Assay results from PubChem BioAssay (NCI).
Values joined by “and” are separate entries in the source; they are usually repeats but may differ in a detail not shown here. Equal entries are not always repeated.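 Five concentrations, 48 hours, 96-well plates. Here, GI50 denotes the concentration required for 50% inhibition of growth. TGI: concentration producing complete growth inhibition.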

Experiments:
Test in all cases: NCI anticancer screen, dose series, 48 h
[1] = test system: KM12 colon
[2] = test system: SN12C renal
[3] = test system: MDA-MB-231 breast
[4] = test system: RXF 393 renal
[5] = test system: PC-3 prostate
[6] = test system: HCC-2998 colon
[7] = test system: NCI-H522 lung
[8] = test system: NCI/ADR-RES ovarian
[9] = test system: T-47D breast
[10] = test system: A549 NSCLC
[11] = test system: OVCAR-4 ovarian
[12] = test system: DU-145 prostate
[13] = test system: SW-620 colon
[14] = test system: TK-10 renal
[15] = test system: OVCAR-3 ovarian
[16] = test system: A498 renal
[17] = test system: NCI-H23 lung
[18] = test system: HCT-116 colon
[19] = test system: MALME-3M melanoma
[20] = test system: HL-60(TB) leukemia
[21] = test system: SK-MEL-2 melanoma
[22] = test system: U251 CNS
[23] = test system: UACC-257 melanoma
[24] = test system: SK-MEL-28 melanoma
[25] = test system: M14 melanoma
[26] = test system: UO-31 renal
[27] = test system: ACHN renal
[28] = test system: EKVX NSCLC
[29] = test system: MDA-MB-435
[30] = test system: HOP-92 NSCLC
[31] = test system: K-562 leukemia
[32] = test system: SK-OV-3 ovarian
[33] = test system: HT29 colon
[34] = test system: 786-0 renal
[35] = test system: MCF7 breast
[36] = test system: HCT-15 colon
[37] = test system: IGROV1 ovarian
[38] = test system: OVCAR-5 ovarian
[39] = test system: MOLT-4 leukemia
[40] = test system: UACC-62 melanoma
[41] = test system: SNB-19 CNS
[42] = test system: HS 578T breast
[43] = test system: CAKI-1 renal
[44] = test system: NCI-H226 lung
[45] = test system: SK-MEL-5 melanoma
[46] = test system: COLO 205 colon
[47] = test system: HOP-62 NSCLC
[48] = test system: SF-539 CNS
[49] = test system: SF-295 CNS
[50] = test system: SF-268 CNS
[51] = test system: SR leukemia
[52] = test system: OVCAR-8 ovarian
[53] = test system: RPMI-8226 leukemia
[54] = test system: NCI-H460 lung
[55] = test system: BT-549 breast
[56] = test system: CCRF-CEM leukemia
[57] = test system: SNB-75 CNS
[58] = test system: LOX IMVI melanoma

CCC[C@H](N[C@H]1CCc2cc(F)cc(F)c2C1)C(=O)Nc1cn(C(C)(C)CNCC(C)(C)C)cn1
GI50 [1]: 26.9 µM and 27 µM
TGI [1]: > 100 µM
GI50 [2]: 28.6 µM and 17.5 µM
TGI [2]: > 100 µM
GI50 [3]: 15.3 µM and 12.9 µM
TGI [3]: 45.3 µM and 41.2 µM
TGI [4]: 39.9 µM and 13.4 µM
GI50 [5]: 10.9 µM and 12.4 µM
TGI [5]: > 100 µM
GI50 [6]: 22.3 µM and 24.9 µM
TGI [6]: > 100 µM
GI50 [7]: 23.9 µM and 13.4 µM
TGI [7]: > 100 µM and 69.6 µM
GI50 [8]: 17.2 µM and 20.6 µM
TGI [8]: > 100 µM
GI50 [9]: 9.83 µM and 14.2 µM
TGI [9]: > 100 µM
GI50 [10]: 23.1 µM and 21.5 µM
TGI [10]: > 100 µM
GI50 [11]: 23.6 µM and 16.1 µM
TGI [11]: > 100 µM
GI50 [12]: 34.8 µM and 35.9 µM
TGI [12]: > 100 µM
GI50 [13]: 23.7 µM and 23.3 µM
TGI [13]: > 100 µM
GI50 [14]: 25.1 µM and 28.9 µM
TGI [14]: > 100 µM
GI50 [15]: 19.9 µM and 16.6 µM
TGI [15]: > 100 µM and 77.6 µM
GI50 [16]: 3.85 µM and 19.2 µM
TGI [16]: > 48.1 µM and 87.8 µM
GI50 [17]: 24.1 µM and 22.4 µM
TGI [17]: > 100 µM
GI50 [18]: 7.27 µM and 10.9 µM
TGI [18]: 23.3 µM and 28.6 µM
GI50 [19]: 11 µM and 12.9 µM
TGI [19]: 28.5 µM and 29.5 µM
GI50 [20]: 13.9 µM and 22.4 µM
TGI [20]: 43.3 µM and > 100 µM
GI50 [21]: 16.8 µM and 15.1 µM
TGI [21]: 42 µM and 37.2 µM
GI50 [22]: 17.6 µM and 19.3 µM
TGI [22]: > 100 µM
GI50 [23]: 13.7 µM and 12.9 µM
TGI [23]: 61.9 µM and 40.4 µM
GI50 [24]: 19 µM and 18 µM
TGI [24]: 52.9 µM and 54.8 µM
GI50 [25]: 13.8 µM and 14.8 µM
TGI [25]: 41.2 µM and 46.6 µM
GI50 [26]: 5.72 µM and 4.1 µM
TGI [26]: 30 µM and 27.7 µM
GI50 [27]: 26.3 µM and 23.2 µM
TGI [27]: > 100 µM
GI50 [28]: 24.2 µM and 21.3 µM
TGI [28]: > 100 µM
GI50 [29]: 21.3 µM and 21.5 µM
TGI [29]: > 100 µM
GI50 [30]: 5.6 µM and 2.52 µM
TGI [30]: 40.1 µM and 27.2 µM
GI50 [31]: 5.6 µM and 12.1 µM
TGI [31]: > 100 µM
GI50 [32]: 37.2 µM and 40.3 µM
TGI [32]: > 100 µM
GI50 [33]: 10.4 µM and 11.9 µM
TGI [33]: 29.5 µM and 28.8 µM
GI50 [34]: 14.2 µM and 32.5 µM
TGI [34]: 49.8 µM and > 100 µM
GI50 [35]: 16.3 µM and 11.7 µM
TGI [35]: > 64.4 µM and 83.7 µM
GI50 [36]: 20.1 µM and 16.3 µM
TGI [36]: > 100 µM
GI50 [37]: 42.6 µM and 31.5 µM
TGI [37]: > 100 µM
GI50 [38]: 27 µM and 22.6 µM
TGI [38]: > 100 µM
GI50 [39]: 6.93 µM and 7.84 µM
TGI [39]: > 100 µM
GI50 [40]: 16.8 µM
TGI [40]: 45.8 µM
GI50 [41]: 35.2 µM and 29.7 µM
TGI [41]: > 100 µM
GI50 [42]: 16.3 µM and 13.1 µM
TGI [42]: > 100 µM and 93.5 µM
GI50 [43]: 7.69 µM and 4.75 µM
TGI [43]: > 47.6 µM and 42.9 µM
GI50 [44]: 26.5 µM and 14.1 µM
TGI [44]: > 100 µM and 92.9 µM
GI50 [45]: 15.2 µM and 13 µM
TGI [45]: 29.6 µM and 26.2 µM
GI50 [46]: 14 µM and 14.4 µM
TGI [46]: 28.6 µM and 29.1 µM
GI50 [47]: 33.3 µM and 53.3 µM
TGI [47]: > 100 µM
GI50 [48]: 19 µM and 27.8 µM
TGI [48]: 47.3 µM and > 100 µM
GI50 [49]: 23.6 µM and 18.5 µM
TGI [49]: > 100 µM
GI50 [50]: 21.8 µM and 16.5 µM
TGI [50]: > 100 µM
GI50 [51]: 19.3 µM and 14 µM
TGI [51]: > 100 µM and 91.1 µM
GI50 [52]: 31.7 µM and 26 µM
TGI [52]: > 100 µM
GI50 [53]: 9.57 µM and 11 µM
TGI [53]: 48.8 µM and 69 µM
GI50 [54]: 25.3 µM and 21.6 µM
TGI [54]: > 100 µM
GI50 [55]: 14.9 µM and 21 µM
TGI [55]: 72.2 µM and 86.2 µM
GI50 [56]: 24.5 µM and 20.7 µM
TGI [56]: > 100 µM
GI50 [57]: 18.2 µM and 13.8 µM
TGI [57]: > 100 µM
GI50 [58]: 15.5 µM and 16.1 µM
TGI [58]: 34.3 µM and 35.9 µM
